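In this assay, cells in 96-well plates receive the compound at five concentrations for 48 hours. Endpoints are linearly interpolated between the surrounding concentrations. TGI marks complete inhibition of growth.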
Tests used:
Assay in all cases: NCI tumour cell line growth inhibition, 48 h
DLD-1 colon = test system: DLD-1 colon
DMS 273 small cell lung = test system: DMS 273 small cell lung
HOP-18 NSCLC = test system: HOP-18 NSCLC
KM20L2 colon = test system: KM20L2 colon
LXFL 529 NSCLC = test system: LXFL 529 NSCLC
SNB-78 CNS = test system: SNB-78 CNS
XF 498 CNS = test system: XF 498 CNS
DMS 114 small cell lung = test system: DMS 114 small cell lung
RXF-631 renal = test system: RXF-631 renal

Row | Compound | TGI (DLD-1 colon) [µM] | TGI (DMS 273 small cell lung) [µM] | TGI (HOP-18 NSCLC) [µM] | TGI (KM20L2 colon) [µM] | TGI (LXFL 529 NSCLC) [µM] | TGI (SNB-78 CNS) [µM] | TGI (XF 498 CNS) [µM] | TGI (DMS 114 small cell lung) [µM] | TGI (RXF-631 renal) [µM]
1 | CC1(C)OC(C[C@]2(C#N)C[C@H](CCl)OC(C)(C)O2)C[C@@H](C[C@]2(C#N)C[C@H](CCl)OC(C)(C)O2)O1 (stereo partly specified) | > 100 | > 100 | > 100 | > 100 | > 100 | > 100 | > 100 |  | 
2 | CCCCCCCCOC(CO)CO | > 100 | > 100 | > 100 | > 100 | > 100 |  |  | > 100 | 
3 | O=C1CCCC/C1=C1\C(=O)Nc2cc(F)ccc21 | > 100 | > 100 | > 100 | > 100 | > 100 | > 100 | > 100 | > 100 | 
4 | N=c1nc2n(cc1F)[C@@H]1O[C@H](CO)[C@@H](O)[C@@H]1O2 | > 100 | > 100 | > 100 | > 100 | > 100 | > 100 | > 100 |  | 
5 | N#C/C(=C\c1ccc(O)c(O)c1)C(=O)NC1CCC(CC2CCC(NC(=O)/C(C#N)=C/c3ccc(O)c(O)c3)CC2)CC1 (stereo unspecified) | > 40.4 | 0.832 | > 100 | 3.81 | 28.1 | 5.37 | 16.5 |  | 
6 | CCOC(=O)c1cc2c(nc1N)-c1ncccc1CC2 | > 100 | > 100 | > 100 | > 100 | > 100 | > 100 |  | 33 | > 100
7 | COc1ccc2c3c(n(Cc4ccccc4)c(=O)c2c1)-c1cc(OC)c(OC)cc1C3C (stereo unspecified) | > 100 | 38.6 | > 100 | > 100 | > 53 | > 100 | 38 | > 89.2 | > 100
8 | CCCc1c[nH]c(-c2ccc(-c3cc(CCC)c(C=O)[nH]3)s2)c1 | 28.4 | 30.3 | 43 |  | 32.8 | 37.2 | 32.7 | 27.8 | 
9 | O=C(O)Cc1cccc2c1Oc1ccccc1S2 | > 100 | > 100 |  | > 100 | > 100 | > 100 |  | > 100 | 
10 | O=C(c1cc2ccccc2o1)N(Cc1ccccc1)c1ccccc1 | 56.6 | > 100 | 65.9 | 35.9 | > 100 | > 100 | 41.8 | 44.2 | > 100
11 | CC1(C)CC(=O)C2=C(C1)S/C(=C1/SC3=C(S1)C(=O)CC(C)(C)C3)S2 | > 251 | > 251 | > 251 | > 251 | > 251 | > 251 | > 251 | > 251 | 
12 | O=C(c1ccccc1)c1ccc(OCCOc2ccc(Nc3ccccc3)cc2)cc1 | > 100 | > 100 | > 100 | > 100 | > 100 | > 100 | 48.4 | > 100 | 82.8
13 | NNC(=S)N/N=C(/C(=O)Nc1cc(Cl)ccc1Cl)C1C(=O)Nc2ccccc2S1=O (stereo unspecified) | > 100 |  | > 100 | > 100 | > 100 | > 100 | > 100 | > 100 | 
14 | CCSC1(SCC)CC(Cc2ccc(OC)cc2)N(C=NC(C)(C)C)C1 (stereo unspecified) | > 100 | > 100 | > 100 | 56.9 | 93.6 | > 100 | 38.9 | 43.4 | 

— PubChem BioAssay (NCI)
